Assay results published in PMC11378298 (ACS Chemical Neuroscience, 2024).
Structures can show the parent of a compound that is named as a salt.

Biological target: GSK-3β (Homo sapiens, UniProt P49841)
Experiment: biochemical
Settings: not given
Protocol: We evaluated the pharmacological properties of the compounds in vitro against GSK-3β using the GSK-3β Kinase Enzyme System followed by ADP-Glo bioluminescent assay.[50] The principle of the assay is to determine the amount of ADP formed from ATP in the kinase reaction. […] Additionally, compounds 11 and 36 in complex with GSK-3β were analyzed by the proteins’ melting temperature determination using Thermal Shift Assay (see Figure S1 in the SI).
The inhibitory activities of the tested compounds against the GSK-3β human recombinant kinase were measured using Promega’s GSK-3β Kinase Enzyme System (Promega; Madison, WI, USA), according to the provided manufacturer’s instruction, using the low-volume white polystyrene 384-well plates. The ADP-Glo Assay (Promega; Madison, WI, USA) was used for bioluminescent detection of the kinase activity. Tested compounds were prepared as 1 mM stock solutions in DMSO and diluted with the Kinase Assay Buffer before use (40 mM Tris, pH 7.5, enriched with 50 μM dithiothreitol; DTT) to obtain the desired compounds’ concentrations. The kinase enzyme, GSK-3β-substrate (derived from human muscle glycogen synthase 1), and ATP were also diluted in the assay buffer before use. At first, GSK-3β (10 ng per well) was incubated with the tested sample (10 μM in well) for 5 min. In the case of blank wells, the DMSO solution (1% in well) was used instead of the target samples’ solutions. After the incubation period, ATP (25 μM in well) and GSK-3β-substrate (0.2 μg/μL in well) were added to start the enzymatic reaction. The reaction mixture was kept at room temperature for 1 h, followed by the addition of the ADP-Glo reagent, to terminate the kinase reaction and deplete any remaining ATP. After the following 40 min—a second reagent (Kinase Detection Reagent) was applied to convert the obtained ADP to ATP and to generate light from the newly synthesized ATP using a luciferase/luciferin reaction. The mixture was kept for another 30 min at room temperature, then the luminescence was measured. Based on equation 100 – (S/B) × 100 (where S and B were the respective enzyme activities with and without the tested sample, respectively) the percent of inhibition of GSK-3β for each compound was calculated. […] Calculations were made using nonlinear regression (GraphPad Prism 9; GraphPad Software, San Diego, CA, USA) by plotting the residual enzyme activities against the applied inhibitor concentration. […] Each data point was collected in triplicate.

Sequence of GSK-3β (P49841 whole entry): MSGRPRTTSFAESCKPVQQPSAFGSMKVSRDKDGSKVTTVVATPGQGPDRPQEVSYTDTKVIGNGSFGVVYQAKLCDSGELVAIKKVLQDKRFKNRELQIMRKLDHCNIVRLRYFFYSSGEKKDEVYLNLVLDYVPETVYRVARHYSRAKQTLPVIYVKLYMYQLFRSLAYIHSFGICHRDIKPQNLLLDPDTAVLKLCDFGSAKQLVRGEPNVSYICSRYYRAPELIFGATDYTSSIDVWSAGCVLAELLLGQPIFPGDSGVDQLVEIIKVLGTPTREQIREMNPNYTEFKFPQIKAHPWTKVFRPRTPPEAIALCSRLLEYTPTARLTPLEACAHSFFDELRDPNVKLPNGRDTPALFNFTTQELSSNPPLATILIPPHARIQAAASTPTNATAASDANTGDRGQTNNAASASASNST

IC50 | Structure (SMILES)
898 ± 32 nM | O=C(Nc1cc(-c2cccc(-c3ncon3)c2)ccn1)C1CC1 [Compound 33, N-(4-(3-(1,2,4-Oxadiazol-3-yl)phenyl)pyridin-2-yl)cyclopropanecarboxamide]
212 ± 7 nM | N#Cc1ccc(-c2ccnc(NC(=O)C3CC3)c2)cn1 [Compound 24, N-(6-Cyano-[3,4′-bipyridin]-2′-yl)cyclopropanecarboxamide]
952 ± 21 nM | N#Cc1cccc(-c2ccnc(NC(=O)C3CC3)c2)c1 [Compound 23, N-(4-(3-Cyanophenyl)pyridin-2-yl)cyclopropanecarboxamide]
1130 ± 37 nM | N#Cc1ccc(-c2ccnc(NC(=O)C3CC3)c2)cc1 [Compound 22, N-(4-(4-Cyanophenyl)pyridin-2-yl)cyclopropanecarboxamide]
146 ± 5 nM | N#Cc1ccc(-c2ccnc(NC(=O)C3CC3)c2)s1 [Compound 26, N-(4-(5-Cyanothiophen-2-yl)pyridin-2-yl)cyclopropanecarboxamide]
257 ± 5 nM | O=C(Nc1cc(-c2ccc(-c3ncon3)cc2)ccn1)C1CC1 [Compound 32, N-(4-(4-(1,2,4-Oxadiazol-3-yl)phenyl)pyridin-2-yl)cyclopropanecarboxamide]
809 ± 28 nM | O=C(Nc1cc(-c2ccnc(-c3ncon3)c2)ccn1)C1CC1 [Compound 35, N-(2′-(1,2,4-Oxadiazol-3-yl)-[4,4′-bipyridin]-2-yl)cyclopropanecarboxamide]
5220 ± 301 nM | O=C(Nc1cc(-c2ccc(-c3ccccc3)s2)ccn1)C1CC1 [Compound 37, N-(4-(5-Phenylthiophen-2-yl)pyridin-2-yl)cyclopropanecarboxamide]

More lines, now with the values behind:

Structure (SMILES) | IC50
NCCCC(=O)N1CC=C(c2ccnc(NC(=O)C3CC3)c2)C1 [Compound 13, N-(4-(1-(4-Aminobutanoyl)-2,5-dihydro-1H-pyrrol-3-yl)pyridin-2-yl)cyclopropanecarboxamide Hydrochloride] | 5490 ± 363 nM
O=C(Nc1cc(C2=CCN(S(=O)(=O)C3CCCC3)C2)ccn1)C1CC1 [Compound 18, N-(4-(1-(Cyclopentylsulfonyl)-2,5-dihydro-1H-pyrrol-3-yl)pyridin-2-yl)cyclopropanecarboxamide] | 3250 ± 83 nM
O=C(Nc1cc(-c2ccc(-c3ncon3)nc2)ccn1)C1CC1 [Compound 34, N-(6-(1,2,4-Oxadiazol-3-yl)-[3,4′-bipyridin]-2′-yl)cyclopropanecarboxamide] | 185 ± 3 nM
NCCCS(=O)(=O)N1CC=C(c2ccnc(NC(=O)C3CC3)c2)C1 [Compound 20, N-(4-(1-((3-Aminopropyl)sulfonyl)-2,5-dihydro-1H-pyrrol-3-yl)pyridin-2-yl)cyclopropanecarboxamide Hydrochloride] | 9990 ± 406 nM
NCCS(=O)(=O)N1CC=C(c2ccnc(NC(=O)C3CC3)c2)C1 [Compound 19, N-(4-(1-((2-Aminoethyl)sulfonyl)-2,5-dihydro-1H-pyrrol-3-yl)pyridin-2-yl)cyclopropanecarboxamide Hydrochloride] | 1370 ± 44 nM
O=C(Nc1cc(C2=CCN(C[C@@H]3CCCN3)C2)ccn1)C1CC1 [(S)-15, (S)-N-(4-(1-(Pyrrolidin-2-ylmethyl)-2,5-dihydro-1H-pyrrol-3-yl)pyridin-2-yl)cyclopropanecarboxamide Hydrochloride] | 11300 ± 1120 nM
CCCS(=O)(=O)N1CC=C(c2ccnc(NC(=O)C3CC3)c2)C1 [Compound 17, N-(4-(1-(Propylsulfonyl)-2,5-dihydro-1H-pyrrol-3-yl)pyridin-2-yl)cyclopropanecarboxamide] | 9270 ± 467 nM
NCCC(=O)N1CC=C(c2ccnc(NC(=O)C3CC3)c2)C1 [Compound 12, N-(4-(1-(3-Aminopropanoyl)-2,5-dihydro-1H-pyrrol-3-yl)pyridin-2-yl)cyclopropanecarboxamide Hydrochloride] | 1360 ± 110 nM
O=C(Nc1cc(C2=CCN(C(=O)[C@@H]3CCCN3)C2)ccn1)C1CC1 [Compound 14, N-(4-(1-Prolyl-2,5-dihydro-1H-pyrrol-3-yl)pyridin-2-yl)cyclopropanecarboxamide] | 7720 ± 543 nM
CC(=O)N1CC=C(c2ccnc(NC(=O)C3CC3)c2)C1 [Compound 10, N-(4-(1-Acetyl-2,5-dihydro-1H-pyrrol-3-yl)pyridin-2-yl)cyclopropanecarboxamide] | 599 ± 11 nM
CS(=O)(=O)N1CC=C(c2ccnc(NC(=O)C3CC3)c2)C1 [Compound 16, N-(4-(1-(Methylsulfonyl)-2,5-dihydro-1H-pyrrol-3-yl)pyridin-2-yl)cyclopropanecarboxamide] | 6200 ± 163 nM

Same assay, conditions: read-out: Percent of enzyme inhibition at 10 μM of inhibitor concentration

inhibition at 10 µM | Structure (SMILES)
17.8 ± 1.7% | O=C(Nc1cc(C2=CCN(C[C@H]3CCCN3)C2)ccn1)C1CC1 [(R)-15, (R)-N-(4-(1-(Pyrrolidin-2-ylmethyl)-2,5-dihydro-1H-pyrrol-3-yl)pyridin-2-yl)cyclopropanecarboxamide hydrochloride]
34.4 ± 2.8% | N#Cc1cc(-c2ccnc(NC(=O)C3CC3)c2)ccn1 [Compound 25, N-(2′-Cyano-[4,4′-bipyridin]-2-yl)cyclopropanecarboxamide]

System: not listed separately
Experiment: Cytotoxicity in HT-22 cells (PrestoBlue)
Settings: mouse, HT-22 hippocampal neuronal cells
Protocol: (§1) The compounds were tested at 5 concentrations (0.1, 1, 10, 50, and 100 μM).
(§2) Mouse Hippocampal Neuronal Cell Line (HT-22) was a generous gift from Dr Bartosz Pomierny of the Department of Biochemical Toxicology, Jagiellonian University Medical College, Krakow, Poland. Cells were cultured in Dulbecco’s modified Eagle’s Medium—high glucose (DMEM, Glutamax Thermo Fisher) supplemented with 10% heat-inactivated fetal bovine serum (Thermo Fisher), 100 IU/mL penicillin (Merck) and 100 μg/mL streptomycin (Merck). Cells were cultured in flasks (area 175 cm^2, Nunc), and incubated at 37 °C, 5% CO2. For the measurement of cell viability and neuroprotective effect against okadaic acid cells were placed in a 96-well culture plate (2 × 10^4 cells per well, Falcon). Before the tests, cells were grown for 24 h in the incubator (37 °C, 5% CO2).
(§3) Cell viability was evaluated using the PrestoBlue reagent (ThermoFisher), according to the manufacturer’s procedures.[87] Following 24 h of incubation with the tested molecule, PrestoBlue reagent was added to a microplate well in an amount equal to one-tenth of the remaining medium volume. The resulting mixture was incubated for 15 min at 37 °C, and the fluorescence intensity (EX 530 nm; EM 580 nm) was measured in the plate reader POLARstar Omega, (BMG Labtech).

Structure (SMILES) | IC50 at 24 h
O=C(Nc1cc(-c2ccc(-c3ncon3)nc2)ccn1)C1CC1 [Compound 34, N-(6-(1,2,4-Oxadiazol-3-yl)-[3,4′-bipyridin]-2′-yl)cyclopropanecarboxamide] | > 100 µM

System: HT-22 cells
Experiment: Cytotoxicity in HT-22 cells (PrestoBlue)
Settings: whole range of concentrations 0.1–100 μM
Protocol: as §1, §2, §3

Structure (SMILES) | cell viability in HT-22 cells
O=C(Nc1cc(-c2ccc(-c3ncon3)nc2)ccn1)C1CC1 [Compound 34, N-(6-(1,2,4-Oxadiazol-3-yl)-[3,4′-bipyridin]-2′-yl)cyclopropanecarboxamide] | No significant decrease in cell viability

System: not listed separately
Experiment: Cytotoxicity in BV-2 cells (PrestoBlue)
Settings: mouse, BV-2 microglial cells
Protocol: as §1
Mouse microglial cells (BV-2) were a generous gift from Professor Bozena Kaminska-Kaczmarek of the Laboratory of Molecular Neurobiology, Neurobiology Center, Nencki Institute of Experimental Biology, Polish Academy of Sciences, Warsaw, Poland. Cells were cultured in Dulbecco’s modified Eagle’s Medium-high glucose (DMEM, Glutamax Thermo Fisher) supplemented with 10% heat-inactivated fetal bovine serum (Thermo Fisher), 100 IU/mL penicillin (Merck) and 100 μg/mL streptomycin (Merck). Cells were cultured in flasks (area 175 cm^2, Nunc), and incubated at 37 °C, 5% CO2. To evaluate the level of NO, IL-6, and TNF-α and the effectiveness of the compounds tested, BV-2 microglia cells were cultured in a 96-well culture plate (5 × 10^4 cells per well, Falcon). For the measurement of cell viability and cell membrane damage, cells were placed in a 96-well culture plate (2 × 10^4 cells per well, Falcon). Before the tests, cells were grown for 24 h in the incubator (37 °C, 5% CO2).
as §3

Structure (SMILES) | IC50 at 24 h
O=C(Nc1cc(-c2ccc(-c3ncon3)nc2)ccn1)C1CC1 [Compound 34, N-(6-(1,2,4-Oxadiazol-3-yl)-[3,4′-bipyridin]-2′-yl)cyclopropanecarboxamide] | 39.2 ± 5.2 µM

System: BV-2 cell line
Experiment: NO release in LPS-treated BV-2 cells (DAN fluorometric assay)
Assay type: cell-based, mouse
Settings: compound 0.1, 1, 10 μM; LPS 100 ng/mL
Protocol: Cell viability was determined by Presto Blue assay after 24 h. (B) Effect of compounds 11, 34, and 36 (0.1, 1, 10 μM) on NO-release (%) in LPS-treated (100 ng/mL) BV-2 cell line. NO-release was measured using a fluorometric assay with 2,3-diaminonaphthalene (DAN). (C, D) Effects of compounds 11 and 36 (0.1, 1, 10 μM) on IL-6 and TNF-α release in LPS-treated (100 ng/mL) BV-2 cell line. The IL-6 and TNF-α levels were measured using LANCE Ultra TR-FRET Detection Kit (PerkinElmer). Statistical analysis was performed using GraphPad Prism 9.0.0. All values are expressed as mean with SD. Differences among groups were evaluated by one-way ANOVA followed by posthoc analysis (Dunnett’s multiple comparison tests) vs. control group (LPS on BV-2 cells and okadaic acid on HT-22 cells) and were considered statistically significant if p < 0.05 (*p < 0.05, **p < 0.01, ***p < 0.001, and ****p < 0.0001).
An important role in the pathogenesis of AD has been attributed to neuroinflammation resulting from the activation of astrocytes and microglial cells.[55] These processes lead to increased production of proinflammatory cytokines such as TNF-α or IL-6 that activate processes, e.g., tau hyperphosphorylation, causing injury and cell death.[56] A standard model of neuroinflammation is based on lipopolysaccharide-stimulated BV-2 microglial cells. In this study, we used this model to evaluate the anti-inflammatory properties of compounds 11, 34, and 36.[57] Our evaluation focused on monitoring the levels of key inflammatory markers, including nitric oxide (NO, Figure 6B) and cytokines, TNF-α and IL-6 (Figure 6C,D).
The cells were pretreated with tested compounds for 1 h. […]
The NO level in the culture supernatants was measured using 2,3-diaminonaphthalene (DAN) reagent according to the method of Nussler et al.[88] After 15 min of incubation at room temperature, the fluorescence intensity (EX 360; EM 440 nm) was measured using a microplate reader POLARstar Omega, (BMG Labtech). The values of nitric oxide were calculated as a percentage of control (maximal response of LPS).

Structure (SMILES) | impact on NO release
O=C(Nc1cc(-c2ccc(-c3ncon3)nc2)ccn1)C1CC1 [Compound 34, N-(6-(1,2,4-Oxadiazol-3-yl)-[3,4′-bipyridin]-2′-yl)cyclopropanecarboxamide] | did not show any impact
